The values that follow come from PMC6010102, “N-thioalkylcarbazoles derivatives as new anti-proliferative agents: synthesis, characterisation and molecular mechanism evaluation” (Journal of Enzyme Inhibition and Medicinal Chemistry, 2018).

One may read the IC50 as the concentration at which inhibition is half-maximal.

The test system of test [1] is HeLa human epithelial cervix carcinoma cells. Nature of the test: MTT cell viability, HeLa. It counts as cell-based. As to conditions: 72 h exposure, mean ± SD, read-out: Antiproliferative activity IC50, HeLa. The source says: (§1) The six cell lines used in this work were purchased from American Type Culture Collection (ATCC, Manassas, VA). MCF-7 human breast cancer cells, oestrogen receptor (ER) positives, were maintained in Dulbecco’s Modified Eagle’s Medium/Nutrient Mixture F-12 Ham (DMEM/F12), supplemented with 5% foetal bovine serum (FBS) and 100 U/ml penicillin/streptomycin, as previously described. MDA-MB-231, human breast cancer cells, oestrogen receptor (ER) negative, were maintained in Dulbecco’s Modified Eagle’s Medium/Nutrient Mixture F-12 Ham (DMEM/F12), supplemented with 5% Newborn Calf Serum (NCS) and 100 U/ml penicillin/streptomycin. HeLa human epithelial cervix carcinoma cells, oestrogen receptor (ER) negative, and ISHIKAWA human endometrial adenocarcinoma cell, oestrogen receptor positive, were maintained in minimum essential medium (MEM), supplemented with 10% FBS, 100 U/ml penicillin/streptomycin and 1% non-essential amino acid. 3T3-L1 cells line of murine fibroblasts of embryonic type, were maintained in DMEM, supplemented with 10% NCS and 100 U/ml penicillin/streptomycin. MCF-10A human mammary epithelial cells were cultured in DMEM/F12 medium, supplemented with 5% horse serum (HS) (Eurobio, Les Ullis, Cedex, France), 100 U/ml penicillin/streptomycin, […] hydrocortisone, 20 ng/ml hEGF (human epidermal growth factor), 10 μg/ml insulin and […] cholera enterotoxin (Sigma-Aldrich, Milano, Italy). Cells were maintained at 37 °C in a humidified atmosphere of 95% air and 5% CO2 and periodically screened for contamination.
(§2) MDA-MB-231, MCF-7, HeLa and ISHIKAWA cells were grown in complete medium and, before being treated, they were serum deprived for 24 h, to allow cell cycle synchronisation. Then cells were grown in phenol red-free medium supplemented with 1% DCC (destran-coated charcoal treated) FBS, then treated with increasing concentrations (0.1, 1, 10, 20, 40, 100 µM) of each compound for 72 h. Compounds were dissolved in dimethylsulphoxide (DMSO) (Sigma, St. Louis, MO) and diluted in each cell medium. Untreated cells, used as a control, were added with DMSO alone (final concentration 0.1%). Cell viability was assessed using the 3-[4,5-dimethylthiazol-2-yl]-2,5-diphenyltetrazolium bromide reagent (MTT), according to the protocol from manufacturer (Sigma-Aldrich, Milan, Italy), as previously described[37] ^, [38]. For each sample, the mean absorbance, measured at 570 nm, was expressed as a percentage of the control and plotted versus drug concentration to determine for each cell line the IC50 values (namely, drugs concentrations able to reduce cell viability of 50% with respect to the control), using GraphPad Prism 5 Software (GraphPad Inc., San Diego, CA)[39]. Each experiment was carried out in quadruplicate. Standard deviations (SD) were shown.

Test [2] relates to 3T3-L1 murine fibroblasts. Nature of the test: MTT cell viability, 3T3-L1. As to conditions: Mus musculus, non-tumoural cells, 72 h exposure, mean ± SD, read-out: Antiproliferative activity IC50, 3T3-L1. Type of test: cell-based.
Source text: as §1, §2

In test [3] the test system is MCF-10A human mammary epithelial cells. Nature of the test: MTT cell viability, MCF-10A. It counts as cell-based. As to conditions: non-tumoural cells, 72 h exposure, mean ± SD, read-out: Antiproliferative activity IC50, MCF-10a.
Source text: as §1, §2

Test [4] concerns MCF-7 human breast cancer cells. Nature of the test: MTT cell viability, MCF-7. Type of test: cell-based. As to conditions: MCF7, 72 h exposure, mean ± SD, read-out: Antiproliferative activity IC50, MCF-7.
Source text: as §1, §2

Test [5] relates to ISHIKAWA human endometrial adenocarcinoma cells. Nature of the test: MTT cell viability, ISHIKAWA
It counts as cell-based. As to conditions: 72 h exposure, mean ± SD, read-out: Antiproliferative activity IC50, ISHIKAWA
Source text: as §1, §2

The test system of test [6] is MDA-MB-231 human breast cancer cells. Nature of the test: MTT cell viability, MDA-MB-231. Type of test: cell-based. As to conditions: 72 h exposure, mean ± SD, read-out: Antiproliferative activity IC50, MDA-MB-231.
Source text: as §1, §2

For the next test, the target named is hTopoII (Homo sapiens, UniProt P11388). Nature of the test: Human topoisomerase II decatenation assay. It counts as biochemical. As to conditions: 50 µM, reference molecule. How it is done:
Human topoisomerase II decatenation assay: hTopoII decatenation assays were performed as reported in Iacopetta et al.[8].
Figure 2. hTopoII inhibition assay. kDNA was incubated with human Topoisomerase II in the absence (lane C, vehicle DMSO) or presence of compound 5c (lane 5c) or Ellipticine (lane E) at 10 and 50 µM, respectively. Lane K, kinetoplast DNA (kDNA).

Sequence of hTopoII (P11388 whole entry): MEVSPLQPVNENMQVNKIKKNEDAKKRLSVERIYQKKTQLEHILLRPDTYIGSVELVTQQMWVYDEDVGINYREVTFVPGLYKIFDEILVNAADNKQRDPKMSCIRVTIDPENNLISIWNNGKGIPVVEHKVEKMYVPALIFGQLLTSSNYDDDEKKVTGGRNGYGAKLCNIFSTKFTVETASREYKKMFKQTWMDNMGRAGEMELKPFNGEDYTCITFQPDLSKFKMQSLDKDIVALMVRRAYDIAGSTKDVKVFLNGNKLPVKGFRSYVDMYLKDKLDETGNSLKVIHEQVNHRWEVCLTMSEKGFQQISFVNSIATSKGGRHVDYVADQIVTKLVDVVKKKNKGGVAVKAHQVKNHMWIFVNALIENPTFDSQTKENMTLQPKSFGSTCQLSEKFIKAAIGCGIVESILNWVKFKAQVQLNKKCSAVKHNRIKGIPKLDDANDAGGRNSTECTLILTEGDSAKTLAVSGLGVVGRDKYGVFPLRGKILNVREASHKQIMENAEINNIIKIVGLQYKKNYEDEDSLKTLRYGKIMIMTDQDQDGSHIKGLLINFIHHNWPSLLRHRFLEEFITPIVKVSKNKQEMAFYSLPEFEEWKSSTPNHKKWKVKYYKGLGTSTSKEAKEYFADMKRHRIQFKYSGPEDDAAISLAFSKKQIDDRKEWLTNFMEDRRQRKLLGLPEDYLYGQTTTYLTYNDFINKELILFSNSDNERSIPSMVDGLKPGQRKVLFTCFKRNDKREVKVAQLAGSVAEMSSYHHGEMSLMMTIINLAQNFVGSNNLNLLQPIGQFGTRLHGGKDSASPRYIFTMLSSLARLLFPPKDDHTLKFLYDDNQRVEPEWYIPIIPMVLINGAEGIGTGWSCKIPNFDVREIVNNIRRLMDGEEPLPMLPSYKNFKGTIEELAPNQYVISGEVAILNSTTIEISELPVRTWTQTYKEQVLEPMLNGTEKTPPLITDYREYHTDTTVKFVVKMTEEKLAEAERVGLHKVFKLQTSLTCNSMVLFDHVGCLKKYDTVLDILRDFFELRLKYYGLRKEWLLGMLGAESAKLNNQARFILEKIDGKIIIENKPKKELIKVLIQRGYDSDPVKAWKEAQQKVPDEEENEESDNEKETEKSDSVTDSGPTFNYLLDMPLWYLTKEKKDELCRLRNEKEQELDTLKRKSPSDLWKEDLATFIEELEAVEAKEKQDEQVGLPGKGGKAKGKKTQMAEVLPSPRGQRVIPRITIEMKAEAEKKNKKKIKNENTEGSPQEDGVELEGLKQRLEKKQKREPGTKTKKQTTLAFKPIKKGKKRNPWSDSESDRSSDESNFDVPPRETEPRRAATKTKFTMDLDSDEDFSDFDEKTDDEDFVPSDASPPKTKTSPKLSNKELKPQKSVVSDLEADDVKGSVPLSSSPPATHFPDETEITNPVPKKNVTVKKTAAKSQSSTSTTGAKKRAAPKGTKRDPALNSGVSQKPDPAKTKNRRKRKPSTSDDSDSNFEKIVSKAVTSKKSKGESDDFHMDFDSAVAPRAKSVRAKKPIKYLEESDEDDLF

Consider `SCCCCCCCn1c2ccccc2c2ccccc21` [5a, 7-(9H-Carbazol-9-yl)heptane-1-thiol], for which the IC50 in test [1] was 12.8 ± 0.62 µM; in test [2], greater than 100 µM; in test [3] it was greater than 100 µM; in test [4] it was 50.4 ± 0.96 µM; in test [5], 19.2 ± 1.13 µM; in test [6], 39.9 ± 0.52 µM.

As for `Cc1ccc2c(c1)c1c(C)ccc(C)c1n2CCCCCCCS` [5b, 7-(1,4,6-Trimethyl-9H-carbazol-9-yl)-heptane-1-thiol], the IC50 in test [1], in test [2], in test [3], in test [4], in test [5] and in test [6] was greater than 100 µM throughout.

As for `SCCCCCCCCn1c2ccccc2c2ccccc21` [6a, 8-(9H-Carbazol-9-yl)octane-1-thiol], the IC50 in test [1], in test [2], in test [3], in test [4], in test [5] and in test [6] was greater than 100 µM in each case.

As for `Cc1ccc2c(c1)c1c(C)ccc(C)c1n2CCCCCCCCS` [6b, 8-(1,4,6-Trimethyl-9H-carbazol-9-yl)-octane-1-thiol], the half-maximal inhibitory concentration (IC50) in test [1], in test [2], in test [3], in test [4], in test [5] and in test [6] was greater than 100 µM throughout.

For the molecule `Cc1ccc(C)c2c1c1cc(Br)ccc1n2CCCCCCCCS` [6c, 8-(6-Bromo-1,4-dimethyl-9H-carbazol-9-yl)-octane-1-thiol], the 50% inhibitory concentration (IC50) in test [1], in test [2], in test [3], in test [4], in test [5] and in test [6] was greater than 100 µM each time.

For `SCCCCCCCCCn1c2ccccc2c2ccccc21` [7a, 9-(9H-Carbazol-9-yl)nonane-1-thiol], the IC50 in test [1], in test [2], in test [3], in test [4], in test [5] and in test [6] was greater than 100 µM throughout.

As to `Cc1ccc2c(c1)c1c(C)ccc(C)c1n2CCCCCCCCCS` [7b, 9-(1,4,6-Trimethyl-9H-carbazol-9-yl)-nonane-1-thiol], the IC50 in test [1], in test [2], in test [3], in test [4], in test [5] and in test [6] was greater than 100 µM each time.

For the molecule `Cc1ccc(C)c2c1c1cc(Br)ccc1n2CCCCCCCCCS` [7c, 9-(6-Bromo-1,4-dimethyl-9H-carbazol-9-yl)-nonane-1-thiol], the half-maximal inhibitory concentration (IC50) in test [1], in test [2], in test [3], in test [4], in test [5] and in test [6] was greater than 100 µM each time.

With `Cc1c2ccncc2c(C)c2c1[nH]c1ccccc12` [Ellipticine, reference compound], the IC50 in test [1] was found to be 1.05 ± 0.5 µM; in test [2], 0.98 ± 0.7 µM; in test [3], 1.2 ± 0.2 µM; in test [4] it was 1.25 ± 0.3 µM; in test [5], 1.7 ± 0.8 µM; in test [6], 1.85 ± 0.15 µM. Also, the “hTopoII inhibition (kDNA decatenation)” value on hTopoII was “complete inhibition”.
